SMILES strings stand for the structures. The source made the active and inactive calls. Unless noted, the rule behind the calls is not given here.

We go through 7 molecules from ChEMBL document CHEMBL1201862, “PubChem BioAssay data set” (2004).

Assay [1] is described as follows: toxicity to A549 lung cells – cell-based, plate reader, dry powder, set 6, cytotoxicity control, dose response (AID 743312). The format is functional.
The nature of assay [2]: cells. To be noted: HEK293.
Assay [3] concerns the target Metabotropic glutamate receptor 2 (Homo sapiens, UniProt Q14416). Description: off-target activity check on mGlu2 receptor – cell-based, GIRK thallium flux, agonist curve fold shift, selectivity assay for mGlu8/mGlu7 PAM project, profiling panel (AID 743433). It counts as functional.
In assay [4] the target is Metabotropic glutamate receptor 5 (Homo sapiens, UniProt P41594). Description: off-target activity check on mGlu5 receptor – cell-based, calcium fluorescence, glutamate curve fold shift, selectivity assay for mGlu8/mGlu7 PAM project, profiling panel (AID 743419). It counts as functional.
In assay [5] the target is Metabotropic glutamate receptor 3 (Homo sapiens, UniProt Q14832). The assay can be described thus: Selectivity Studies of mglur8 probe at mglur3. It counts as functional.
For assay [6], the target named is T1, Metabotropic glutamate receptor 4 (Homo sapiens, UniProt Q14833). Description: Fold shift mGlu4, mGlu7, mGlu8 using calcium mobilization. The format is functional. Background: Calcium assays in cells follow changes in intracellular calcium, usually with a dye or a luminescent sensor.
For assay [7], the target named is Metabotropic glutamate receptor 6 (Homo sapiens, UniProt O15303). The assay can be described thus: off-target activity check on mGlu6 receptor – cell-based, GIRK thallium flux, agonist curve fold shift, selectivity assay for mGlu8/mGlu7 PAM project, profiling panel (AID 743421). The format is functional.
Assay [8] concerns the target T2, Metabotropic glutamate receptor 7 (Homo sapiens, UniProt Q14831). The assay can be described thus: Fold shift mGlu7 using calcium mobilization. The format is functional.
Assay [9] deals with Metabotropic glutamate receptor 8 (Homo sapiens, UniProt O00222). Description: Fold shift mGlu8 using GIRK assay. It counts as functional.
The target in assay [10] is T2, Metabotropic glutamate receptor 7. Description: glutamate curve shift by mGlu7 potentiators, cell-based, rat, GIRK per title (AID 743386). The format is functional.
Assay [11] deals with T1, Metabotropic glutamate receptor 4. The assay can be described thus: agonist response potentiation at mGlu4 receptor – cell-based, GIRK thallium flux, mechanism study for group III mGlu PAM project, late-stage follow-up (AID 743466). It counts as functional.
For assay [12], the target named is Ubiquitin carboxyl-terminal hydrolase BAP1 (Homo sapiens, UniProt Q92560). The assay can be described thus: inhibition of BAP1 ubiquitin hydrolase activity – biochemical, dose response (AID 714). The format is functional.
For assay [13], the target named is E3 ubiquitin-protein ligase UHRF1 (Homo sapiens, UniProt Q96T88). Description: Counterscreen for inhibitors of 5-meCpG-binding domain protein 2 (MBD2): TRFRET-based biochemical high throughput dose response assay to identify inhibitors of binding of ubiquitin-like with PHD and ring finger domains 1 (UHRF1) to methylated oligonucleotide.
For assay [14], the target named is G-protein coupled receptor 183 (Homo sapiens, UniProt P32249). The assay can be described thus: SAR confirmation of small molecule antagonists of the EBI2 receptor via a luminescent beta-arrestin assa. It counts as functional.
Assay [15] has as its target T3, Tyrosine-protein phosphatase non-receptor type 7 (Homo sapiens, UniProt P35236).
T3 sequence (P35236 whole entry): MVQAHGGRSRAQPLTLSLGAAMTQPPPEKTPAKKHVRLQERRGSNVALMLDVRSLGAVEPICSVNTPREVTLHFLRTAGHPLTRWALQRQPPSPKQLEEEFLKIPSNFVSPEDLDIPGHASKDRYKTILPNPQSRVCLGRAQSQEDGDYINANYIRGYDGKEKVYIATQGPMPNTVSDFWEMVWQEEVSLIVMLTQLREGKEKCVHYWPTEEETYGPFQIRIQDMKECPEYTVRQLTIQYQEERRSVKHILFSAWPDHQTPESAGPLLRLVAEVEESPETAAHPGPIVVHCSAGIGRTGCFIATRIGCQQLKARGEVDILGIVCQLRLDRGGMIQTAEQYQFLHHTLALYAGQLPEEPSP
The assay can be described thus: HePTP tyrosine phosphatase activity blockers – biochemical, absorbance, leukemia target, primary screen (AID 521). It counts as functional.

The target of assay [16] is Protein Tat (Human immunodeficiency virus type 1 group M subtype B (isolate HXB2)(HIV-1), UniProt P04608). The format is functional.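 Also: tat binding to TAR RNA read out by fluorescence polarization.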
Assay [17] can be described thus: viability loss in Vero cells – cytotoxicity control for Vif-APOBEC3G degradation inhibitor project, dose response (AID 1117358). It counts as functional. To be noted: Vero.

T1 sequence (Q14833 whole entry): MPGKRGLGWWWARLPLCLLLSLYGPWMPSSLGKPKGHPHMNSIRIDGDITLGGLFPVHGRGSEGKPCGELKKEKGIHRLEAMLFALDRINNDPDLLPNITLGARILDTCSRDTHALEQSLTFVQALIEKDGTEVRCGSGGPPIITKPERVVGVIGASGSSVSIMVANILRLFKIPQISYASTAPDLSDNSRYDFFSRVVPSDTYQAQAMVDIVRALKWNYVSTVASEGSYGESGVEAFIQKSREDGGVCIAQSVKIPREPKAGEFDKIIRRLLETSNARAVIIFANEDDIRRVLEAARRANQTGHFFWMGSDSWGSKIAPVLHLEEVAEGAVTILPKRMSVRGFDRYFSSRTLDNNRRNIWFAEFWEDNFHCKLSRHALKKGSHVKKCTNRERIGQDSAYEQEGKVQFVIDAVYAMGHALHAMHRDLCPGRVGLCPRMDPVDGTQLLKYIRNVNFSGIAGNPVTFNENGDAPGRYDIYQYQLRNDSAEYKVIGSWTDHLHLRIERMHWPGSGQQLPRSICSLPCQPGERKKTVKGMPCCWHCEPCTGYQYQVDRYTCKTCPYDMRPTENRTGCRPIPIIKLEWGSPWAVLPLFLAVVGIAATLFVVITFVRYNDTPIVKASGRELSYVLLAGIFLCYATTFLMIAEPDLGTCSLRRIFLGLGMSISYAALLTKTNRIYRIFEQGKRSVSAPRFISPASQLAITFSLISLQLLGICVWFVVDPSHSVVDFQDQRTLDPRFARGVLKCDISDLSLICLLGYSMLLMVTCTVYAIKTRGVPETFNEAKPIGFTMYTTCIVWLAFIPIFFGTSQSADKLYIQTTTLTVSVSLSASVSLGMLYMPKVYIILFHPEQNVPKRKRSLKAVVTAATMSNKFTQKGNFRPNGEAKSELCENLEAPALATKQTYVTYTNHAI
T2 sequence (Q14831 whole entry): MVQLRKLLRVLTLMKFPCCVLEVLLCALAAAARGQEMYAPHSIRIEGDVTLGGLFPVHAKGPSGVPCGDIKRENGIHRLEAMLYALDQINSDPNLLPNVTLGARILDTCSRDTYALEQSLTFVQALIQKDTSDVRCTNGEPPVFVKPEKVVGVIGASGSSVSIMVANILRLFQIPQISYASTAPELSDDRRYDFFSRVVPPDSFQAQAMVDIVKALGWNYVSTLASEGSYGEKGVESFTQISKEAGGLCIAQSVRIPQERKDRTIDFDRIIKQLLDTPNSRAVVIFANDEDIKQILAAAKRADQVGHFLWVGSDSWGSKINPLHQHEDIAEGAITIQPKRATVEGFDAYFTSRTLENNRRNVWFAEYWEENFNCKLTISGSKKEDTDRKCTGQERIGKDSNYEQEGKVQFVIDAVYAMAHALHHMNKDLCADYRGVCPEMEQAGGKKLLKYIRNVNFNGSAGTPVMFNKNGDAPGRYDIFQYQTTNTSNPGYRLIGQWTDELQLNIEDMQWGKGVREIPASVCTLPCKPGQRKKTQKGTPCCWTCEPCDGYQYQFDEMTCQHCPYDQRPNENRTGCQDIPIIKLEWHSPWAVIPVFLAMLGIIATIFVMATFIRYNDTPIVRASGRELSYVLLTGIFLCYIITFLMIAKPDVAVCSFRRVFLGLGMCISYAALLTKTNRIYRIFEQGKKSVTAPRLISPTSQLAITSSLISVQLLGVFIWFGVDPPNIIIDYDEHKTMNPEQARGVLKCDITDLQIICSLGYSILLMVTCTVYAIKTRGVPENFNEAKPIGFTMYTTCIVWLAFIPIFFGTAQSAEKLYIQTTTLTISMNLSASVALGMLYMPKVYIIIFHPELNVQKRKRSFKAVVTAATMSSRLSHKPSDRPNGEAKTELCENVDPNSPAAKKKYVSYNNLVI
Sequence of Protein Tat (P04608 whole entry): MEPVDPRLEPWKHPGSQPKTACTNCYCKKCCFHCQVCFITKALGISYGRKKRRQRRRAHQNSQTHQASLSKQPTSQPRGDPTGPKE
Sequence of Ubiquitin carboxyl-terminal hydrolase BAP1 (Q92560 whole entry, the tested form may be a part): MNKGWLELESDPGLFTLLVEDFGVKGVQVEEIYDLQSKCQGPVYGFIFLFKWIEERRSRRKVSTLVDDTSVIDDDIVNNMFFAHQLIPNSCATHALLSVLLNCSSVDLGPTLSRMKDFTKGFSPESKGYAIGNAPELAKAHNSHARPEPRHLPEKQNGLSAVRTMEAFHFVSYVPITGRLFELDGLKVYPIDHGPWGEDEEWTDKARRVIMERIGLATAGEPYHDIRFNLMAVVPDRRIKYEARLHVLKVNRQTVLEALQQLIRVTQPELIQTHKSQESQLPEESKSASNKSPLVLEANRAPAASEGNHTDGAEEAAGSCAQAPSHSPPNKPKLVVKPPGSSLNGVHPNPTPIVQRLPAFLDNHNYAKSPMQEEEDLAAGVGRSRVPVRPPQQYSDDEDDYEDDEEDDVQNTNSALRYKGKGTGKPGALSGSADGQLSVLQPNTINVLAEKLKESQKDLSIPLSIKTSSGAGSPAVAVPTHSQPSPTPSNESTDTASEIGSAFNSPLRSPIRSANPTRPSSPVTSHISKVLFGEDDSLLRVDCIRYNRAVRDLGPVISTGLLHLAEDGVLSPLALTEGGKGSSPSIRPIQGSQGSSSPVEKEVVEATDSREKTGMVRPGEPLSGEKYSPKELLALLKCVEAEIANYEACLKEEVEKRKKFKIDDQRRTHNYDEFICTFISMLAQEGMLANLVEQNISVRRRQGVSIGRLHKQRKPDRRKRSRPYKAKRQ
Sequence of Metabotropic glutamate receptor 5 (P41594 whole entry): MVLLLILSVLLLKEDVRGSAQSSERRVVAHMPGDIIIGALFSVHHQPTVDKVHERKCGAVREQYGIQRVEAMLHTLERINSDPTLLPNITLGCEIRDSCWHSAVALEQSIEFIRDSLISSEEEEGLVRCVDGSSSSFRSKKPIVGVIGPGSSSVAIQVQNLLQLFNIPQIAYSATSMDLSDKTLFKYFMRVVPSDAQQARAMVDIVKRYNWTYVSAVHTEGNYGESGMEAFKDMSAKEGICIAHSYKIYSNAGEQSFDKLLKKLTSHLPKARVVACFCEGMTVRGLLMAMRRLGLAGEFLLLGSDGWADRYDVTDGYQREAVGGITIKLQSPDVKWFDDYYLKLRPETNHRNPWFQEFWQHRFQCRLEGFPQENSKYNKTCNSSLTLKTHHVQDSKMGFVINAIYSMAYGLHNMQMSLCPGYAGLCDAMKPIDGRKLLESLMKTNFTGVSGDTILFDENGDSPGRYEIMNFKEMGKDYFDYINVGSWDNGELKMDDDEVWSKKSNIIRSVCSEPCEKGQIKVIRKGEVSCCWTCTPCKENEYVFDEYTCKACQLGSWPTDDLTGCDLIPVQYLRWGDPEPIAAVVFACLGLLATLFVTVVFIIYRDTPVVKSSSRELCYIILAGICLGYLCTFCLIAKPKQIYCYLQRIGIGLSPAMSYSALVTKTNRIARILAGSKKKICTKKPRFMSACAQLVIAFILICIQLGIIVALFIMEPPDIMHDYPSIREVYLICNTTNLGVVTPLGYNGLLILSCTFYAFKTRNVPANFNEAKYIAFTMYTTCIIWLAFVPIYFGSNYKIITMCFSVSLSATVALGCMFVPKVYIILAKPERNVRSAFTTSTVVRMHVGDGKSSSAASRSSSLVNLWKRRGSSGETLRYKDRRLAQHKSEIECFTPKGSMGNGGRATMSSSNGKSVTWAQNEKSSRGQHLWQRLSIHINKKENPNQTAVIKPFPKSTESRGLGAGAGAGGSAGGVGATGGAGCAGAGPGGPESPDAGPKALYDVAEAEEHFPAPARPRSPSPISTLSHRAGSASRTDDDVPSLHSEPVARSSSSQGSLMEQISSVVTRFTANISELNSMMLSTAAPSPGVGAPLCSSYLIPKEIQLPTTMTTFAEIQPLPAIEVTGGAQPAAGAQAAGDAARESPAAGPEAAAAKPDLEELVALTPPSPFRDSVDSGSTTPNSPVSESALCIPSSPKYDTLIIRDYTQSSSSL
Sequence of Metabotropic glutamate receptor 8 (O00222 whole entry): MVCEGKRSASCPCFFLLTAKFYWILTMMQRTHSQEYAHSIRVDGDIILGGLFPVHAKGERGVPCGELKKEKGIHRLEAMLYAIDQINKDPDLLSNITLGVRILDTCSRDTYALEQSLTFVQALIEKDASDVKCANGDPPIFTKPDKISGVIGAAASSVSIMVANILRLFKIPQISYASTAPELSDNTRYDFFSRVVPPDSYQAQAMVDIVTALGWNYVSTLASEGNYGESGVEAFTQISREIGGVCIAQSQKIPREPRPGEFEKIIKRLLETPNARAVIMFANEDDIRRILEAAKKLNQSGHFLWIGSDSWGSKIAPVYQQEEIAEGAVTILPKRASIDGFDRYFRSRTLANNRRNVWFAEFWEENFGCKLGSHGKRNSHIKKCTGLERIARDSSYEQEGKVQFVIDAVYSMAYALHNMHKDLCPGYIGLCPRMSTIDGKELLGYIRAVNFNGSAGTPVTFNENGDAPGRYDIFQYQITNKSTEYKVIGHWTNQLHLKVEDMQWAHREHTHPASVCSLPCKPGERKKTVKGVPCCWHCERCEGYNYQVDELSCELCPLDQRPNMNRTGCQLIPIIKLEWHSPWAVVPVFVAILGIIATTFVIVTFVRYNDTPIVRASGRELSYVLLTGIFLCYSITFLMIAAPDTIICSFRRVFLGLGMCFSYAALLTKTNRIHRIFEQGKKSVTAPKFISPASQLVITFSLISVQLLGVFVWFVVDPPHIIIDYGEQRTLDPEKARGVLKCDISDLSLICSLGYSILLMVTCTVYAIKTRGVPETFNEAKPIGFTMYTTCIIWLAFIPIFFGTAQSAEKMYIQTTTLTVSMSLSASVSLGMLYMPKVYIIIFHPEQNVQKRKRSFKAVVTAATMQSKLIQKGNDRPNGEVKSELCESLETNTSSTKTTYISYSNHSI

Take `Cc1cccc(OCCn2c(=S)[nH]c3ccc(C(F)(F)F)cc32)c1`: the AC50 – broadly, the concentration at which the activity in the assay is half-maximal – is 15.6 µM (active) in assay [1] and 35.9 µM (active) in assay [2].
Regarding `COC(=O)c1ccc(-n2c(C)cc(C(=O)CSc3ccc(NC(C)=O)cc3)c2C)cc1`, the EC50 (usually the midpoint of the concentration-response curve) in [3] is 0.37 µM (inactive); in assay [4], 0.35 µM (inactive); in assay [5] it was 0.18 µM (inactive); in [6], 1.78 µM (active); in assay [7] it was 0.39 µM (active); in assay [8], 16.2 µM (active). Moreover, the values for the concentration giving a half-maximal response (EC50) in assay [9], in [10] and in assay [11] were 0.73 µM, 28.4 µM (active) and 4.1 µM (inactive), respectively.
For the molecule `CCCCn1c2c(c3ccccc31)CCc1nonc1-2`, the IC50 – broadly, the concentration that gives 50% inhibition – in [12] is on record as > 50 µM (not active).
Turning to `CC(=O)Nc1sc2c(c1-c1nc3ccccc3s1)CCN(C)C2`, the IC50 in [13] was 25.7 µM (inactive).
Turning to `O=C(/C=C/c1ccc(Br)cc1)N1CCN(Cc2cc(F)cc(F)c2)CC1`, the half-inhibitory concentration (IC50) in assay [14] was 0.00221 µM (active).
As to `Cc1cnn(C(=S)NCc2ccc(Cl)cc2)c1`, in [15], the IC50 is reported as > 100 µM (not active).
In the case of `CN1CCc2nc3ccc(Cl)cc3c(-c3ccccc3Cl)c2C1`, the IC50 in assay [16] is > 100 µM (active). Further, in [17], the cytotoxic concentration (CC50) (commonly the concentration that lowers cell viability or growth by half) is > 40 µM (active).
